According to patent US20230301890A1, “COMPOSITIONS COMPRISING UROLITHINS” (Amazentis SA, priority 2022, published 2023):
“Also recorded” adds a separate entry of the source.

How the values were obtained:
[1] = system: facial wrinkles; assay: Aging study 1: wrinkle analysis of Colorface images; type: in vivo, human
Description: The effect of the test product on the skin barrier function will be assessed by transepidermal […] (TEWL) at the beginning as well as after 2 weeks and after 8 weeks of product application. Furthermore, effects on the facial skin on skin hydration (by Corneometer), skin elasticity and firmness (by Cutometer) and skin color (by Spectrophotometer) will be investigated. Additionally, skin layer thickness and undulation index of the dermal epidermal junction (DEJ) will be measured by line-field confocal optical coherence tomography (LC-OCT). Images for wrinkle analysis and for documentation purpose will be taken with Colorface. A questionnaire regarding product traits will be filled in after 2 weeks of product application and at the end of the study.
The following efficacy assessment(s) will be performed: • Biomarker analysis of 3 mm punch-biopsies on 30 subjects (15 subjects per group) by Sponsor/3rd party • Transepidermal Water Loss (TEWL) by Tewameter [g/(m2h)j • Skin Hydration—Skin Capacitance by Corneometer [a.u.j] (see FIG. 8) • Skin Color by Spectrophotometer • Skin Firmness—R0 (Uf) by Cutometer [mm] • Skin Elasticity—R7 (Ur/Uf) by Cutometer • Image analysis by line-field confocal optical coherence tomography (LC-OCT) by Damae**: • (a) Skin layer thickness (epidermis and stratum corneum) • (b) Undulation index of the dermal epidermal junction (DEJ) • Image analysis of Colorface Images by Newtone • (a) analysis of wrinkles and fine lines (see FIG. 7) • (b) creation of average face • Questionnaire of product traits • upon decision of the sponsor, depending on the results of the other instrumental measurements analysis will be done on either one group at three timepoints, or on two groups at two timepoints
COLORFACE® PHOTOBOX (Newtone Technologies, Lyon, France): Colorface® is used for standardized, computer-controlled facial photography. It is equipped with a 24 Mpixel Nikon camera and a various range of LED-flashes at fixed positions in the booth. Illumination of the face is done with • ? standard flashes • ? parallel-polarized light • ? cross-polarized light • □ UV flashes to obtain fluorescent images. The acquisition software for Colorface is used as image database, but also defines the settings for the respective study. All settings are fixed so that unwanted changes of image capture parameters can be avoided. The instrument enables facial photography of high quality and same illumination at different assessment times. Images of the following position of the face will be taken: • ? front • ? right • ? left • 1 single image per setting, face position and assessment time • Data will be stored in the Newtone Imaging access cloud • Images will be provided to the sponsor in an anonymized way (e.g., black bar covering eyes) if possible.
Crow's Feet Analysis: • Parameter: Visible length, Visible surface, Visible depth and Visible volume • Illumination: STD60 • View: profile: right and left • Area: Crow's Feet

[2] = system: human skin; assay: RNA-seq transcriptomics and GSEA of forearm skin biopsies (aging study 1); type: in vivo; details: 8 weeks; for expression of collagen genes (COL1A1, COL5A1, COL5A2, COL14A1, COL3A1) / gene set "collagen fibril organization" (Normalized Enrichment Score): 1% Mitopure product; for expression of collagen genes (COL1A1, COL5A1, COL5A2, COL14A1, COL3A1): change vs baseline normalized over placebo; for gene set "collagen fibril organization" (Normalized Enrichment Score): end of study vs baseline, normalized over placebo/vehicle
Protocol: In this study, a cosmetic product with a 1% concentration of the active Mitopure or a placebo product were tested on skin aging for 8 weeks. […] Gene set enrichment analysis (GSEA) was performed using the R package ClusterProfiler [Yu et al., 2012]. Briefly, in each comparison, genes were ranked by age beta score value, and the enrichment of a given gene set among up- or-down regulated genes was statistically tested. The minimum and maximum gene set sizes were set to 10 and 500, respectively. Resulting p-values were adjusted using the BH method. Terms with an adjusted p-value<0.05 were considered as statistically significant. To analyze mitochondrial effects biopsies will be taken from a subpanel on volar forearms prior and after 8 weeks of product application and will be analyzed for biomarkers by 3rd parties (See FIGS. 2 and 4). Gene set enrichment analysis (GSEA) will be employed to look for overrepresentation of known mitochondrial pathways and gene functional categories among the regulated genes expressed in human skin. Genes will be ranked by fold change (high to low) and filtered (unadjusted P value of 0.1 before using them) in the GSEA analysis to reduce the risk of false positives. Gene sets defined by the Gene Ontology (GO) Consortium (http://www.geneontology.org/) will be analyzed. We investigated biological pathways impacted by topical UA application performing RNA-seq transcriptomics of forearm skin biopsies from the aging study I. Gene set enrichment analysis (GSEA) was applied to identify significant pathways changed by UA comparing end of the study to baseline, and normalizing results over vehicle. […] We further studied which UA regulated pathways are involved in the natural skin aging process. […] This gene set includes collagen genes encoding for fibrillar type I and III collagen (FIG. 13B), known to decline in skin with chronological aging 13, photo-aging and smoking 14. […] Among them, […]-1, regulating 3D structure and elasticity 15 and AEBP, encoding for a collagen-interacting protein required for optimal tissue repair 16 (FIG. 13B).

[3] = system: wrinkles in the periorbital regions; assay: Aging study 2: skin roughness (wrinkle) by DermaTOP; type: in vivo, human; details: 1% UA creams, 2, 4 and 8 weeks, vs untreated side; listed as UA
Description: Anti-wrinkle efficacy will be assessed in the periorbital regions by investigating the three-dimensional structure of the wrinkles (DermaTOP). Skin hydration, skin elasticity effects and skin barrier function will be investigated by Corneometer, Cutometer and Tewameter measurements. On a subgroup of 12 subjects the ceramide content, including barrier lipids, in the Stratum Corneum will be performed by Raman Spectroscopy. […]
DERMATOP blue (Eo Tech SA, Marcoussis France): Using phase-shifted and gray-coded measurements of human skin the three-dimensional surface structure of the investigated skin site is captured. […] The fringes that are projected under a defined triangulation angle onto the surface of the measured target with a sinus-like intensity of brightness are detected with a CCD camera. The three-dimensional skin surface profile is calculated from the position of the fringes in combination with the gray values of each pixel. From the captured three-dimensional structure, roughness parameters are calculated. […]

O=c1oc2cc(O)ccc2c2ccc(O)cc12 [Urolithin A]
wrinkle depth ([1]; 0.5% Urolithin A skin cream, vs placebo): no impact | wrinkle depth ([1]; 0.5% Urolithin A skin cream, vs placebo, listed as UA): did not showed any significant effect | wrinkle depth ([1]; 0.5% Urolithin A skin cream, vs placebo, listed as urolithin A): Lack of anti-wrinkle effect | wrinkle depth ([1]; 1% Urolithin A skin cream, 8 weeks twice daily, vs placebo treated side): significant impact on reducing wrinkle depth | wrinkle depth ([1]; 1% Urolithin A skin cream, 8 weeks twice daily, vs placebo treated side, listed as UA): significant anti-wrinkle effects; also recorded: significant reduction | wrinkle depth ([1]; 1% Urolithin A skin cream, 8 weeks twice daily, vs placebo treated side, listed as urolithin A): Reduction; also recorded: Anti-wrinkle effect | reduction in wrinkles ([1]; cream containing Urolithin A at 1% alone): 4-6% | expression of collagen genes (COL1A1, COL5A1, COL5A2, COL14A1, COL3A1) [2]: significant up-regulation | expression of collagen genes (COL1A1, COL5A1, COL5A2, COL14A1, COL3A1) ([2]; listed as Mitopure): increased expression; also recorded: all upregulated; also recorded: improved expression | gene set "collagen fibril organization" (Normalized Enrichment Score) [2]: significantly upregulated; also recorded: positive | gene set "collagen fibril organization" (Normalized Enrichment Score) ([2]; listed as UA): most significantly activated pathway | genes involved in skin homeostasis (EMILIN-1, AEBP) ([2]; UA 1% topical): rescued age-associated decline | gene sets related to chemokine response ([2]; UA 1% topical, normalized over vehicle): reducing | wrinkles (finer and rougher skin structures, Ra and Rz) [3]: significant anti-wrinkle effects; also recorded: significant impact on reducing wrinkles
